Experimental data published in publication PMC5556071, “ATR inhibition facilitates targeting of leukemia dependence on convergent nucleotide biosynthetic pathways” (Nature Communications, 2017).
“And” between values parts separate entries of the source, which are not always exact repeats. Equal values may be shown once.

Tested on: CEM cells
Assay: Non-targeted LC-MS metabolite profiling: percent [13C6]glucose labeling and relative metabolite levels
Format: cell-based, human
From the text: To further investigate the functions of dCK and ATR at the G1/S transition in CEM cells, a non-targeted liquid chromatography mass spectrometry (LC-MS) assay was used to determine the utilization of labeled [^13C6]glucose and [^13C9,^15N3]deoxycytidine, the main substrates for de novo and salvage nucleotide biosynthesis, respectively. Of the 166 metabolites identified in CEM cells treated with VE-822 and/or dCKi, 105 metabolites found in all four treatment groups contained glucose-derived ^13C atoms. […] These metabolites included intermediates such as rUTP, rCTP and rCDP in the de novo dCTP biosynthesis (Fig. 1d). […] However, several deoxyribonucleotides, including dCTP, were below the limit of detection of the non-targeted LC-MS approach, raising the concern that the sensitivity of this assay is not sufficient to measure the contribution of the salvage pathway or the ratio of de novo and salvage biosynthesis to these pools. To address this problem, a newly developed targeted MS assay was developed (Fig. 1e and Supplementary Fig. 3). In this assay, samples containing either extracted dNTPs or hydrolyzed DNA from labeled cells are separated by LC for detection by a triple quadrupole mass spectrometer using multiple reaction monitoring (LC-MS/MS-MRM). The first (Q1) and third (Q3) quadrupoles function as mass filters, while the second (Q2) quadrupole serves as a collision chamber (Fig. 1e). For instance, to profile the biosynthetic composition of deoxycytidine (dC) derived from hydrolyzed DNA or dCTP, an intact, protonated dC ion is selected in Q1, followed by fragmentation of the glycosidic bond, which releases protonated cytosine in Q2, that is filtered in Q3 and detected to generate an ion chromatogram. The peak areas for the ion chromatograms of salvage [^13C9,^15N3]dC (red trace), de novo [^13C5]dC (black trace, from [^13C6]glucose) and unlabeled dC (gray trace) (Fig. 1e) are used to determine the relative contributions of the de novo and salvage routes both to dCTP pools and to DNA-incorporated dCTP.
Cells were transferred into RPMI-1640 without glucose and supplemented with 10% dialyzed FBS (Gibco) containing the following labeled substrates: precursors for de novo [U-^13C6]glucose (Sigma-Aldrich, 389374) at 11 mM; precursors for purine salvage [U-^13C10,^15N5]dA (Cambridge Isotopes, CIL 3896), [^15N5]dA (Cambridge Isotopes, NLM-3895) and [^15N5]dG (Cambridge Isotopes, NLM-3899) at 5 µM or as indicated; and precursors for pyrimidine salvage: [U-^13C9,^15N3]dC (Silantes, 124603602) and [U-^13C10,^15N2]dT (Cambridge Isotopes, CNLM-3902) at 5 µM and [^15N2]orotate (Cambridge Isotopes, NLM-1048) at indicated concentrations. The cells were incubated for 12 h or as indicated before sample collection and processing. […]
Non-targeted LC-MS metabolic assays. 1 x 10^6 cells were washed with ice-cold 150 mM ammonium acetate twice before adding 1 mL of ice-cold 80% methanol with 10 nM norvaline as an internal standard. After vigorous vortexing, samples were centrifuged at maximum speed, the aqueous layer was transferred to a glass vial and the metabolites were dried under vacuum. Metabolites were resuspended in 50 μL 70% acetonitrile (ACN) and 5 μL of this solution used for the mass spectrometer-based analysis. The analysis was performed on a Q Exactive (Thermo Scientific) in polarity-switching mode with positive voltage 4.0 kV and negative voltage 4.0 kV. The mass spectrometer was coupled to an UltiMate 3000RSLC (Thermo Scientific) UHPLC system. Mobile phase A was 5 mM ammonium acetate (NH4AcO), pH 9.9, B was acetonitrile and the separation achieved on a Luna […] NH2 100 A column (150 × 2.0 mm, Phenomenex). The flow was 200 μL/min, and the gradient ran from 15% A to 95% A in 18 min, followed by an isocratic step for 9 min and re-equilibration for 7 min. Metabolites were detected and quantified as area under the curve based on retention time and accurate mass (≤ 3 p.p.m.) using the TraceFinder 3.1 (Thermo Scientific). Relative amounts of […]

[1] = metabolite Gln (KEGG C00064), CEM cells, 12 h following release from G1 arrest, replicates #1-#6, listed as V
[2] = metabolite Glu (KEGG C00025), CEM cells, 12 h following release from G1 arrest, replicates #1-#6, listed as V
[3] = metabolite GlucA (KEGG C00191), CEM cells, 12 h following release from G1 arrest, replicates #1-#6, listed as V
[4] = metabolite Gly (KEGG C00037), CEM cells, 12 h following release from G1 arrest, replicates #1-#6, listed as V
[5] = metabolite Glycerol (KEGG C00116), CEM cells, 12 h following release from G1 arrest, replicates #1-#6, listed as V
[6] = metabolite Glycerol-2-P (KEGG C02979), CEM cells, 12 h following release from G1 arrest, replicates #1-#6, listed as V
[7] = metabolite Glycerol-3-P (KEGG C00093), CEM cells, 12 h following release from G1 arrest, replicates #1-#6, listed as V
[8] = metabolite Homocysteine (KEGG C00155), CEM cells, 12 h following release from G1 arrest, replicates #1-#6, listed as V
[9] = metabolite Hypoxanthine (KEGG C00262), CEM cells, 12 h following release from G1 arrest, replicates #1-#6, listed as V
[10] = metabolite IMP (KEGG C00130), CEM cells, 12 h following release from G1 arrest, replicates #1-#6, listed as V
[11] = metabolite Inosine (KEGG C00294), CEM cells, 12 h following release from G1 arrest, replicates #1-#6, listed as V
[12] = metabolite a-KG (C00026), CEM cells, 12 h following release from G1 arrest, replicates #1-#6, listed as V

CNCc1ccc(-c2cc(-c3nc(-c4ccc(S(=O)(=O)C(C)C)cc4)cnc3N)on2)cc1 [VE-822]
Glucose labeling of Gln [1]: 0.12% (2×) and 0.11% and 0.10% and 0.14% and 0.13% | Relative level of Gln [1]: 1.4 and 1.5 (2×) and 1.0 (2×) and 1.1 | Glucose labeling of Glu [2]: 29.64% and 29.75% and 29.30% and 29.37% and 29.63% and 30.02% | Relative level of Glu [2]: 1.1 and 1.0 (2×) and 0.8 and 0.6 (2×) | Glucose labeling of GlucA [3]: 1.00% and 0.54% and 0.16% and 1.19% and 0.18% (2×) | Relative level of GlucA [3]: 1.5 and 1.3 (2×) and 0.9 and 0.664 and 0.6 | Glucose labeling of Gly [4]: 3.91% and 4.81% and 4.97% and 3.57% and 3.82% and 3.53% | Relative level of Gly [4]: 1.8 and 1.3 (2×) and 0.853 and 0.8 and 0.846 | Glucose labeling of Glycerol [5]: 0.0369% (3×) and 0.02% and 0.03% and 0.0184% | Relative level of Glycerol [5]: 0.6 and 1.0 and 0.643 and 1.2 (2×) and 2.5 | Glucose labeling of Glycerol-2-P [6]: 20.62% and 19.08% and 14.73% and 9.01% and 11.61% and 10.03% | Relative level of Glycerol-2-P [6]: 2.7 and 1.2 and 1.6 and 1.8 and 0.334 and 0.262 | Glucose labeling of Glycerol-3-P [7]: 13.71% and 13.99% and 13.43% and 15.94% and 16.61% and 16.91% | Relative level of Glycerol-3-P [7]: 1.3 and 1.4 (2×) and 1.0 (2×) and 0.9 | Glucose labeling of HS2O3 (metabolite HS2O3 (KEGG C00320), CEM cells, 12 h following release from G1 arrest, replicates #1-#6): 100.00% | Relative level of HS2O3 (metabolite HS2O3 (KEGG C00320), CEM cells, 12 h following release from G1 arrest, replicates #1-#6, listed as V): 1.2 and 0.9 and 1.0 (3×) and 1.1 | Glucose labeling of His (metabolite His (KEGG C00135), CEM cells, 12 h following release from G1 arrest, replicates #1-#6): 0.00% | Relative level of His (metabolite His (KEGG C00135), CEM cells, 12 h following release from G1 arrest, replicates #1-#6, listed as V): 1.3 and 1.5 and 1.4 and 0.7 and 0.8 (2×) | Glucose labeling of Homocysteine [8]: 0.000288% and 0.000653% and 0.00102% and 0.000955% and 0.0737% (2×) | Relative level of Homocysteine [8]: 2.9 and 3.8 and 5.4 and 40.5 and 0.9 and 1.3 | Glucose labeling of Hypoxanthine [9]: 0.12% (2×) and 0.05% and 0.0153% and 0.00222% and 0.0636% | Relative level of Hypoxanthine [9]: 2.4 and 3.2 and 4.8 and 46.0 and 2.3 and 1.3 | Glucose labeling of IMP [10]: 85.88% and 80.98% and 88.08% and 72.70% and 96.97% and 95.32% | Relative level of IMP [10]: 2.4 and 1.3 (2×) and 1.7 and 0.4 (2×) | Glucose labeling of Inosine [11]: 46.28% and 0.55% and 45.89% and 28.71% and 31.06% and 6.95% | Relative level of Inosine [11]: 1.9 and 1.5 and 4.0 and 5.0 and 1.2 and 4.1 | Glucose labeling of Inositol (metabolite Inositol (KEGG C00137), CEM cells, 12 h following release from G1 arrest, replicates #1-#6): 0.00% | Relative level of Inositol (metabolite Inositol (KEGG C00137), CEM cells, 12 h following release from G1 arrest, replicates #1-#6, listed as V): 1.2 and 1.3 (2×) and 1.0 (3×) | Glucose labeling of Isocaproate (metabolite Isocaproate (X00005), CEM cells, 12 h following release from G1 arrest, replicates #1-#6): 0.00% | Relative level of Isocaproate (metabolite Isocaproate (X00005), CEM cells, 12 h following release from G1 arrest, replicates #1-#6, listed as V): 0.949 and 1.1 and 1.2 and 0.9 and 1.0 and 0.7 | Glucose labeling, a-KG [12]: 12.64% and 3.49% and 7.53% and 10.05% and 2.98% and 1.28% | Relative level, a-KG [12]: 1.7 and 0.7 and 1.0 and 0.9 and 0.3 and 0.255 | decrease of glucose labeling of orotidine monophosphate (OMP) (non-targeted LC-MS analysis): 30%
